Results: PMC10808981, “Synthesis and structure–activity relationships of aryl fluorosulfate-based inhibitors as novel antitubercular agents” (Bioorganic & Medicinal Chemistry Letters, 2024)
In brackets after ≈: the same amount, converted by molar mass.

Key:
in vitro = conditions: human
Mtb H37Rv = assay: MIC determination in Mtb H37Rv, Microdilution Alamar Blue Assay (MABA); format: cell-based, Mycobacterium tuberculosis; conditions: for MIC: Mtb H37Rv, MABA, 7 days
[1] = HEK293T cytotoxicity assay (Cell Titer-Glo); format: cell-based; conditions: human, HEK293T cells; HEK293T, 3 days
Description: HEK293T (ATCC) were grown in DMEM (Gibco Cat # 11965-092) supplemented with 10% heat-inactivated FBS, Pen Strep (Gibco) 1X in a 5% CO2 humidified atmosphere at 37◦C. Cells were washed once with DPBS 1X (Gibco), incubated for less than 5 minutes at room temperature in TrypLE solution (Gibco), washed once in propagation medium to remove trypsin, and counted with Trypan Blue. 5 µL of cell suspension ([…]) was dispensed into 1536-well plates containing serial 3-fold drug dilution ranging from 40 µM to 2 nM and incubated for 3 days in a 5% CO2 humidified atmosphere at 37 ◦C. Cell Titer-Glo® Luminescent Cell Viability Assay (Promega) reagent was diluted 1:1 with water and then 2 µL were added to plates. Luminescence was measured in a PHERAStar plate reader (BMG Labtech) and data normalized to negative control (DMSO) minus inhibitor (Puromycin 10 µM). Dose-response curves were fit using the Smart Fit function in Genedata Screener Analyzer (v16.0.8).

[2] = Mycobacterium tuberculosis, H37RV, 168 h

Structure (SMILES)	CC50 (in vitro) [µM]	MIC (Mtb H37Rv; [2]) [µM]	CC50 at 3 days [1] [µM]	CC50 at 72 h [1] [µM]	CC50 at 72 h (in vitro) [µM]	MIC (Mtb H37Rv) [µM]	anti-TB activity against Mtb (in words) (Mtb H37Rv)
NS(=O)(=O)c1ncn(-c2cc(F)c(COc3ccc(OS(=O)(=O)F)cc3)c(F)c2)n1 [Compound 20 l, 4-((2,6-difluoro-4-(3-sulfamoyl-1H-1,2,4-triazol-1-yl)benzyl)oxy)phenyl sulfurofluoridate]	> 40	0.47 (≈ 0.218 µg/mL)					
O=C(O)c1ncn(-c2cc(F)c(COc3ccc(OS(=O)(=O)F)cc3)c(F)c2)n1 [Compound 20j, 1-(3,5-difluoro-4-((4-((fluorosulfonyl)oxy)phenoxy)methyl)phenyl)-1H-1,2,4-triazole-3-carboxylic acid]	> 40	1.25 (≈ 0.537 µg/mL)	> 40				
Cn1cnc(-c2cc(F)c(COc3ccc(OS(=O)(=O)F)cc3)c(F)c2)n1 [Compound 19b, 4-((2,6-difluoro-4-(1-methyl-1H-1,2,4-triazol-3-yl)benzyl)oxy)phenyl sulfurofluoridate]	> 40	1.25 (≈ 0.499 µg/mL)					
CC(C)c1ncn(-c2cc(F)c(COc3ccc(OS(=O)(=O)F)cc3)c(F)c2)n1 [Compound 20c, 4-((2,6-difluoro-4-(3-isopropyl-1H-1,2,4-triazol-1-yl)benzyl)oxy)phenyl sulfurofluoridate]		0.6 (≈ 0.256 µg/mL)		16.7	12.4		
NC(=O)c1ncn(-c2cc(F)c(COc3ccc(OS(=O)(=O)F)cc3)c(F)c2)n1 [Compound 20 k, 4-((4-(3-carbamoyl-1H-1,2,4-triazol-1-yl)-2,6-difluorobenzyl)oxy)phenyl sulfurofluoridate]	> 40	0.17 (≈ 0.0728 µg/mL)	> 40				
O=S(=O)(F)Oc1ccc(OCc2ccc(-n3cncn3)c(F)c2)cc1 [Compound 3e, 4-((3-fluoro-4-(1H-1,2,4-triazol-1-yl)benzyl)oxy)phenyl sulfurofluoridate]		2.5 (≈ 0.918 µg/mL)		16.8	17.6		
N#Cc1cc(-n2cncn2)cc(F)c1COc1ccc(OS(=O)(=O)F)cc1 [Compound 3j, 4-((2-cyano-6-fluoro-4-(1H-1,2,4-triazol-1-yl)benzyl)oxy)phenyl sulfurofluoridate]	> 40	5 (≈ 1.96 µg/mL)	> 40			5 (≈ 1.96 µg/mL)	
O=S(=O)(F)Oc1ccc(OCc2c(F)cc(-c3ncc[nH]3)cc2F)cc1 [Compound 19d, 4-((2,6-difluoro-4-(1H-imidazol-2-yl)benzyl)oxy)phenyl sulfurofluoridate]		0.3 (≈ 0.115 µg/mL)	> 40		30.1		
CCc1ncn(-c2cc(F)c(COc3ccc(OS(=O)(=O)F)cc3)c(F)c2)n1 [Compound 20b, 4-((4-(3-ethyl-1H-1,2,4-triazol-1-yl)-2,6-difluorobenzyl)oxy)phenyl sulfurofluoridate]		0.6 (≈ 0.248 µg/mL)	> 40		5.8		
O=S(=O)(F)Oc1ccc(OCc2c(F)cc(-n3ccnc3)cc2F)cc1 [Compound 19f, 4-((2,6-difluoro-4-(1H-imidazol-1-yl)benzyl)oxy)phenyl sulfurofluoridate]	< 10	0.37 (≈ 0.142 µg/mL)	< 10	9.65	8.63		
O=S(=O)(F)Oc1ccc(OCc2cc(F)c(-n3cncn3)c(F)c2)cc1 [Compound 3 g, 4-((3,5-difluoro-4-(1H-1,2,4-triazol-1-yl)benzyl)oxy)phenyl sulfurofluoridate]	> 40	10 (≈ 3.85 µg/mL)		34.8			
O=S(=O)(F)Oc1ccc(OCc2c(F)cc(-c3ccn[nH]3)cc2F)cc1 [Compound 19c, 4-((2,6-difluoro-4-(1H-pyrazol-5-yl)benzyl)oxy)phenyl sulfurofluoridate]		0.84 (≈ 0.323 µg/mL)		31.7	18.5		
CN(c1ncn(-c2cc(F)c(COc3ccc(OS(=O)(=O)F)cc3)c(F)c2)n1)S(C)(=O)=O [Compound 21c, 4-((2,6-difluoro-4-(3-(N-methylmethylsulfonamido)-1H-1,2,4-triazol-1-yl)benzyl)oxy)phenyl sulfurofluoridate]		0.31 (≈ 0.153 µg/mL)			15.3		
O=S(=O)(F)Oc1ccc(OCc2ccc(-n3cncn3)c(F)c2F)cc1 [Compound 3f, 4-((2,3-difluoro-4-(1H-1,2,4-triazol-1-yl)benzyl)oxy)phenyl sulfurofluoridate]		1.25 (≈ 0.482 µg/mL)		18.8	22.4		
CC(C)S(=O)(=O)Nc1ncn(-c2cc(F)c(COc3ccc(OS(=O)(=O)F)cc3)c(F)c2)n1 [Compound 21e, 4-((2,6-difluoro-4-(3-((1-methylethyl)sulfonamido)-1H-1,2,4-triazol-1-yl)benzyl)oxy)phenyl sulfurofluoridate]	> 40	0.31 (≈ 0.157 µg/mL)	> 40				
COc1ncn(-c2cc(F)c(COc3ccc(OS(=O)(=O)F)cc3)c(F)c2)n1 [Compound 20f, 4-((2,6-difluoro-4-(3-methoxy-1H-1,2,4-triazol-1-yl)benzyl)oxy)phenyl sulfurofluoridate]	> 40	0.6 (≈ 0.249 µg/mL)	> 40				
O=S(=O)(F)Oc1ccc(OCc2c(F)cc(-n3ccnn3)cc2F)cc1 [Compound 3 l, 4-((2,6-difluoro-4-(1H-1,2,3-triazol-1-yl)benzyl)oxy)phenyl sulfurofluoridate]		0.16 (≈ 0.0617 µg/mL)		27.7	17		
O=S(=O)(F)Oc1ccc(OCc2c(F)cc(-n3nccn3)cc2F)cc1 [Compound 3 k, 4-((2,6-difluoro-4-(2H-1,2,3-triazol-2-yl)benzyl)oxy)phenyl sulfurofluoridate]	> 40	1.23 (≈ 0.474 µg/mL)	> 40				
CC(=O)Nc1ncn(-c2cc(F)c(COc3ccc(OS(=O)(=O)F)cc3)c(F)c2)n1 [Compound 21a, 4-((4-(3-acetamido-1H-1,2,4-triazol-1-yl)-2,6-difluorobenzyl)oxy)phenyl sulfurofluoridate]	> 40	0.15 (≈ 0.0664 µg/mL)	> 40				
O=S(=O)(F)Oc1ccc(OCc2c(F)cc(-n3cnnn3)cc2F)cc1 [Compound 19 g, 4-((2,6-difluoro-4-(1H-tetrazol-1-yl)benzyl)oxy)phenyl sulfurofluoridate]		0.45 (≈ 0.174 µg/mL)		13.2	12.1		
O=S(=O)(F)Oc1ccc(OCc2c(F)cc(-c3ncon3)cc2F)cc1 [Compound 19i, 4-((2,6-difluoro-4-(1,2,4-oxadiazol-3-yl)benzyl)oxy)phenyl sulfurofluoridate]	> 40	< 1	> 40			0.62 (≈ 0.24 µg/mL)	
CCS(=O)(=O)Nc1ncn(-c2cc(F)c(COc3ccc(OS(=O)(=O)F)cc3)c(F)c2)n1 [Compound 21d, 4-((4-(3-(ethylsulfonamido)-1H-1,2,4-triazol-1-yl)-2,6-difluorobenzyl)oxy)phenyl sulfurofluoridate]	> 40	0.08 (≈ 0.0394 µg/mL)					
CS(=O)(=O)Nc1ncn(-c2cc(F)c(COc3ccc(O)cc3)c(F)c2)n1 [Compound 21 g]						> 10	no activity
N#Cc1ncn(-c2cc(F)c(COc3ccc(OS(=O)(=O)F)cc3)c(F)c2)n1 [Compound 20 g, 4-((4-(3-cyano-1H-1,2,4-triazol-1-yl)-2,6-difluorobenzyl)oxy)phenyl sulfurofluoridate]		0.45 (≈ 0.185 µg/mL)			10.3		
